Laboratory results: paper PMC7076440, “New Preclinical Development of a c-Met Inhibitor and Its Combined Anti-Tumor Effect in c-Met-Amplified NSCLC” (Pharmaceutics, 2020)
Values joined by “and” are separate entries in the source; they are usually repeats but may differ in a detail not shown here. Equal entries are not always repeated.

Columns and labels:
[1] = log D / log P, octanol/water; assay type: physicochemical
Experimental: ABN401 solution (10 μg/mL) was mixed with octanol at a ratio of 1:1 in a glass vial and placed horizontally in a Digital Bio Rotator (SeoLin Bioscience, Seongnam, Korea), and shaken at a constant 90 rpm for 24 h. After 6 h of equilibrium under room temperature, two phases of water and octanol were separated using a separating funnel. The experiment was repeated five times. The concentration of ABN401 at each phase was analyzed by HPLC and log P and log D were calculated using the Henderson-Hasselbalch equation below with the previously determined pKa value. (4) logDbases =logP+log⎣1/(1+ 10^pKa−pH)⎦

Dynamic vapor sorption = assay type: physicochemical; conditions: 25 °C, 5% to 95% RH
Experimental: Moisture sorption analyses were utilized using a VTI-SA vapor sorption analyzer (TA Instruments, New Castle, DE, USA). API was placed into the sample holder. The percentage of relative humidity (% RH) in the chamber was increased from 5% to 95% RH for moisture adsorption, followed by a decrease in % RH from 95% to 5% for moisture desorption. A drying phase (i.e., 40 °C, less than 0.01% weight loss in 2 min) was set to run before to the analysis. The temperature was set at a 25 °C throughout the analysis. The program criteria were set to 0.0001% weight change or 2 min stability of weight gained or lost before the program could proceed to the next set parameter.

[2] = Pharmacokinetic study in beagle dogs; assay type: in vivo; conditions: for BA: PO; for BA / Tmax / AUC(0-inf) / AUC(0-t) / Cmax / MRT last / half-life: beagle dogs
Text: Male beagle dogs were purchased from Marshall, Beijing, China. They were housed under controlled humidity, temperature, and a 12L:12D lighting schedule. Before the experiment, the animals were fed less than 300 g/day for 2 days and those with a body weight around 7.0 ± 0.5 kg were selected for the pharmacokinetic study (n = 3). They were fasted overnight before the experiments but allowed to drink water. This study was reviewed, assessed, and approved by the Institutional Animal Care and Use Committee (IACUC) of the Korea Institute of Toxicology (KIT). The project identification codes were N117008 and N116047, signed on 31 May 2017. For the experiments, 0.5-mL blood samples were collected from each animal at selected intervals and loaded into K2-EDTA tubes. After centrifugation at 13,200 rpm for 5 min, quantitative analysis was performed using LC-MS/MS. Acetic acid buffer (0.1 M) at pH 4.0 with 20% PEG400 was selected as the intravenous solution for ABN401 and WinNonlinTM (Version 5.2.1, Pharsight, USA) was used to calculate the pharmacokinetic parameters (i.e., T1/2: terminal half-life, Cmax: maximum observed peak concentration, Tmax: time to reach Cmax, AUClast: area under the time-concentration curve from zero to the last quantifiable time-point, AUCinf: area under the time-concentration curve from zero to infinity, MRTlast: mean residence time from zero to the last quantifiable time-point). The bioavailability (BA) of each dose was calculated using the following equation:Bioavailability = (AUClast_po/AUClast_iv) × 100(5)
HPLC system (Agilent 1200, Santa Clara, CA, USA), consisting of a binary pump, a degasser, and a refrigerated autosampler (at 10 °C), was used in this study. Analytical samples were separated on the Agilent Eclipse XDB-C18 (3.5 um, 2.1 × 50 mm) at 23 °C. The mobile phase was composed of solvent A (10 mM ammonium formate in purified water) and solvent B (0.1 % formic acid in acetonitrile) and delivered at a flow rate of 0.3 mL/min. In this study, the gradient separation (i.e., the initial condition of the mobile phase consisted of 80% of solvent A and 20% of solvent B, then solvent A was decreased to 0% within 2 min and maintained for 5 min, followed by an increase to 80% within 0.2 min, maintained until 10 min) was used with a 10-min run time per sample. The MS system was composed of an API 4000 Sciex triple quadruple mass spectrometer (AB Sciex, Framingham, MA, USA). The triple quadrupole mass spectrometer was equipped with a turbo ion spray source. The MS/MS detection involved multiple reaction-monitoring in the positive ionization mode. The intensive tracer ion mass for each compound was 567.5 → 467.2 for ABN401 and 237.3 → 194.11 for carbamazepine as an internal standard. The conditions for the electrospray interface were: curtain gas, 20 psi; collision gas, medium; ion spray voltage, 5000 V; temperature, 500°C; ion source gas 1, 50 psi and ion source gas 2, 55 psi. The optimized voltage parameters for the analytes were as follows: declustering potential (61 V), entrance potential (10 V), collision energy (28 V), and collision cell exit potential (12 V). Data acquisition, quantification, and calculations were performed with the Analyst software version 1.4.2 (AB Sciex, Framingham, MA, USA).

[3] = male, beagle, dog, plasma, iv, 1 mg/kg, mean ± SD
[4] = male, beagle, dog, plasma, po, 1 mg/kg, capsule with MCC, mean ± SD
[5] = male, beagle, dog, plasma, po, 5 mg/kg, capsule with MCC, mean ± SD
[6] = male, beagle, dog, plasma, po, 5 mg/kg, capsule without MCC, mean ± SD
[7] = male, beagle, dog, plasma, po, 10 mg/kg, capsule with MCC, mean ± SD

Work on `CN1CCN(Cc2ccc(-c3cnc(N4CCOC(Cn5nnc6ncc(-c7cnn(C)c7)nc65)C4)nc3)cc2)CC1` (stereo not shown) [ABN401] yielded a logD ([1]; average ± SD of five runs) of 1.41 ± 0.08, a logP at 24 h ([1]; average ± SD of five runs) of 2.46 ± 0.04 and a logD ([1]; pH 6.4, run 3, pH 6.40) of 1.37. The logP at 24 h ([1]; run 1, from log D and pKa (Henderson-Hasselbalch)) was 2.41, the logD ([1]; run 1, pH 6.41) was 1.3 and the logP at 24 h ([1]; run 2, from log D and pKa) was 2.43. The logD ([1]; run 2, pH 6.59) was 1.48, the logP at 24 h ([1]; run 3, from log D and pKa) was 2.5 and the logP at 24 h ([1]; run 4, from log D and pKa) was 2.51. It also gave a logD ([1]; run 4, pH 6.49) of 1.47, a logP at 24 h ([1]; run 5, from log D and pKa) of 2.45 and a logD ([1]; run 5, pH 6.53) of 1.45. The moisture adsorption (Dynamic vapor sorption) was “relatively less adsorptive to moisture”, the BA ([2]; 1 mg/kg, capsule with MCC, mean ± SD) was 28.3 ± 15.8% and the BA ([2]; 5 mg/kg, capsule with MCC, mean ± SD) was 30.7% and 30.7 ± 1.7%. For the same compound, the BA ([2]; 5 mg/kg, capsule without MCC, mean ± SD) was 30.7% and 30.7 ± 15.1%, the BA ([2]; 10 mg/kg, capsule with MCC, mean ± SD) was 11.3 ± 2.7% and the Tmax ([2]; male, beagle, dog, plasma, iv, 1 mg/kg) was 0.083 h. The AUC(0-inf) [2, 3] was 287 ± 108 ng·h/mL, the AUC(0-t) [2, 3] was 266 ± 105 ng·h/mL and the Cmax [2, 3] was 308 ± 271 ng/mL. It also gave an MRT last [2, 3] of 1.5 ± 0.7 h, a half-life [2, 3] of 1.9 ± 0.7 h and an AUC(0-inf) [2, 4] of 96.2 ± 40.7 ng·h/mL. The AUC(0-t) [2, 4] was 75.4 ± 42 ng·h/mL, the Cmax [2, 4] was 8 ± 3.8 ng/mL and the MRT last [2, 4] was 7.6 ± 2.5 h. The Tmax [2, 4] was 1.3 ± 0.6 h, the half-life [2, 4] was 9.4 ± 3.2 h and the AUC(0-inf) [2, 5] was 456 ± 28.5 ng·h/mL. The AUC(0-t) [2, 5] was 409 ± 23 ng·h/mL, the Cmax [2, 5] was 50.8 ± 12.4 ng/mL and the MRT last [2, 5] was 8.6 ± 2.7 h. It also gave a Tmax [2, 5] of 1.5 ± 0.7 h, a half-life [2, 5] of 7.6 ± 4.5 h and an AUC(0-inf) [2, 6] of 425 ± 218 ng·h/mL. For the same compound, the AUC(0-t) [2, 6] was 409 ± 201 ng·h/mL, the Cmax [2, 6] was 60.3 ± 29.1 ng/mL and the MRT last [2, 6] was 6.4 ± 0.7 h. For the same compound, the Tmax [2, 6] was 2 h, the half-life [2, 6] was 4.9 ± 0.9 h and the Tmax ([2]; male, beagle, dog, plasma, po, 10 mg/kg, across the doses 1, 5, 10 mg/kg) was 1.3 to 2 h. The AUC(0-inf) [2, 7] was 424 ± 186 ng·h/mL, the AUC(0-t) [2, 7] was 302 ± 72 ng·h/mL and the Cmax [2, 7] was 52.5 ± 13.5 ng/mL. The MRT last [2, 7] was 6.3 ± 3.4 h, the Tmax [2, 7] was 2 h and the half-life [2, 7] was 7.7 ± 5.8 h. The bioavailability ([2]; male, beagle, dog, plasma, oral, dogs, except at 10 mg/kg) was roughly 30%.
